Experimental data as given in patent publication US9133207B2, “Tetrandrine derivatives with substituted 5-carbon, preparation method and use thereof” (Hangzhou Bensheng Pharmaceutical Co., Ltd., priority 2011, dated 2015).
In brackets after ≈: the same amount, converted by molar mass. One block for each compound: values may come before it.

Legend:
[1] = system: RPMI8226 (multiple myeloma); experiment: Multiple myeloma cell growth inhibition, MTT, 72 h (Example 6); assay type: cell-based, human; conditions: Homo sapiens, RPMI-8226; 72 h, MTT, RPMI8226
Summary of the method: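 RPMI8226 cells (6000 per well) in RPMI 1640 with 10% FBS were exposed to a range of tetrandrine derivative concentrations for 72 h at 37 °C under 5% CO2. Viable cell concentration was then measured by MTT.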

[2] = system: Jurkat (acute lymphoblastic leukemia, ALL); experiment: Leukemia cell growth inhibition, MTT, 72 h (Example 5); assay type: cell-based, human; conditions: for IC50 / IC90: Homo sapiens, Jurkat, 72 h, MTT; for anti-Jurkat activity increase over tetrandrine: compared with tetrandrine
Summary of the method: (§1)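 6000 cells/well in RPMI 1640 with 10% FBS exposed to graded derivative concentrations for 72 h at 37 °C, 5% CO2. Viable cell concentration then measured by MTT.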

[3] = system: K562/adr (drug-resistant, chronic myeloid leukemia, CML); experiment: as above; assay type: cell-based, human; conditions: Homo sapiens, K562/Adr; 72 h, MTT
Summary of the method: as §1

[4] = system: Kasumi-1 (acute myeloid leukemia M2 type, AML-M2); experiment: as above; assay type: cell-based, human; conditions: Homo sapiens, Kasumi 1
Summary of the method: as §1

[5] = system: H9 (acute lymphoblastic leukemia, ALL); experiment: as above; assay type: cell-based, human; conditions: Homo sapiens; 72 h, MTT
Summary of the method: as §1

[6] = system: NB4 (acute promyelocytic leukemia, AML); experiment: as above; assay type: cell-based, human; conditions: Homo sapiens; 72 h, MTT
Summary of the method: as §1

[7] = system: CNE (nasopharyngeal carcinoma cell); experiment: Solid tumor cell growth inhibition, MTT, 72 h (Example 7); assay type: cell-based; conditions: Homo sapiens
Summary of the method: (§2)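 Seeded 4000 cells/well, DMEM HG/10% FBS, 24 h at 37 °C/5% CO2; dosed with derivatives (multiple conc.); 72 h; MTT; % viability normalised to untreated = 100%.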

A549 (human lung cancer) = experiment: as above; assay type: cell-based; conditions: Homo sapiens; 72 h, MTT, A549
Summary of the method: as §2

[8] = system: RKO (human colon adenocarcinoma cell); experiment: as above; assay type: cell-based; conditions: Homo sapiens; 72 h, MTT, RKO
Summary of the method: as §2

[9] = system: Becap37 (human breast cancer cell); experiment: as above; assay type: cell-based; conditions: Homo sapiens; 72 h, MTT, Becap-37
Summary of the method: as §2

[10] = system: Hela (human cervical cancer cell); experiment: as above; assay type: cell-based; conditions: Homo sapiens; 72 h, MTT, Hela
Summary of the method: as §2

[11] = system: U87 MG (malignant glioma cell); experiment: as above; assay type: cell-based; conditions: Homo sapiens, U-87 MG
Summary of the method: as §2

[12] = system: MGC 803 (human gastric cancer cell); experiment: as above; assay type: cell-based; conditions: Homo sapiens
Summary of the method: as §2

[13] = system: Huh7 (human liver cancer cell); experiment: as above; assay type: cell-based; conditions: Homo sapiens; 72 h, MTT, Huh-7
Summary of the method: as §2

[14] = system: SK-OV-3 (ovarian cancer cell); experiment: as above; assay type: cell-based; conditions: Homo sapiens
Summary of the method: as §2

PC-3 (prostate cancer) = experiment: as above; assay type: cell-based, human; conditions: Homo sapiens; 72 h, MTT, PC-3
Summary of the method: as §2

MG63 (osteosarcoma) = experiment: as above; assay type: cell-based, human; conditions: Homo sapiens; 72 h, MTT, MG-63
Summary of the method: as §2

[15] = system: PANC-1 (pancreatic cancer); experiment: as above; assay type: cell-based, human; conditions: Homo sapiens; 72 h, MTT, PANC-1
Summary of the method: as §2

[16] = system: Hep-2 (laryngeal carcinoma); experiment: as above; assay type: cell-based, human; conditions: Homo sapiens; 72 h, MTT, Hep 2
Summary of the method: as §2

[17] = system: CaES-17 (esophageal cancer cell); experiment: as above; assay type: cell-based, human; conditions: Homo sapiens, CaEs17; 72 h, MTT, CAES-17
Summary of the method: as §2

IC50 [1]: 0.04 µg/mL (≈ 0.0556 µM) | IC90 [1]: 3.08 µg/mL (≈ 4.28 µM) | IC50 [2]: 0.48 µg/mL (≈ 0.667 µM) | IC90 [2]: 4.52 µg/mL (≈ 6.28 µM) | IC50 [3]: 0.44 µg/mL (≈ 0.611 µM) | IC90 [3]: 8.5 µg/mL (≈ 11.8 µM) | IC50 [4]: 0.46 µg/mL (≈ 0.639 µM) | IC90 [4]: 2.55 µg/mL (≈ 3.54 µM) | IC50 [5]: 0.63 µg/mL (≈ 0.875 µM) | IC90 [5]: 1.96 µg/mL (≈ 2.72 µM) | IC50 [6]: 0.4 µg/mL (≈ 0.556 µM) | IC90 [6]: 1.4 µg/mL (≈ 1.94 µM) | IC50 [7]: 1.17 µg/mL (≈ 1.63 µM) | IC90 [7]: 3.64 µg/mL (≈ 5.06 µM) | IC50 (A549 (human lung cancer)): 3.4 µg/mL (≈ 4.72 µM) | IC90 (A549 (human lung cancer)): 14.9 µg/mL (≈ 20.7 µM) | IC50 [8]: 0.25 µg/mL (≈ 0.347 µM) | IC90 [8]: 1.18 µg/mL (≈ 1.64 µM) | IC50 [9]: 0.76 µg/mL (≈ 1.06 µM) | IC90 [9]: 2.69 µg/mL (≈ 3.74 µM) | IC50 [10]: 2 µg/mL (≈ 2.78 µM) | IC90 [10]: 6.92 µg/mL (≈ 9.61 µM) | IC50 [11]: 0.37 µg/mL (≈ 0.514 µM) | IC90 [11]: 1.16 µg/mL (≈ 1.61 µM) | IC50 [12]: 0.92 µg/mL (≈ 1.28 µM) | IC90 [12]: 12 µg/mL (≈ 16.7 µM) | IC50 [13]: 1.28 µg/mL (≈ 1.78 µM) | IC90 [13]: 2.45 µg/mL (≈ 3.4 µM) | IC50 [14]: 3.5 µg/mL (≈ 4.86 µM) | IC90 [14]: > 16 µg/mL | IC50 (PC-3 (prostate cancer)): 1.83 µg/mL (≈ 2.54 µM) | IC90 (PC-3 (prostate cancer)): 3.65 µg/mL (≈ 5.07 µM) | IC50 (MG63 (osteosarcoma)): 0.77 µg/mL (≈ 1.07 µM) | IC90 (MG63 (osteosarcoma)): 1.27 µg/mL (≈ 1.76 µM) | IC50 [15]: 2.27 µg/mL (≈ 3.15 µM) | IC90 [15]: 8.22 µg/mL (≈ 11.4 µM) | IC50 [16]: 3.22 µg/mL (≈ 4.47 µM) | IC90 [16]: 8.45 µg/mL (≈ 11.7 µM) | IC50 [17]: 1.42 µg/mL (≈ 1.97 µM) | IC90 [17]: 11 µg/mL (≈ 15.3 µM)
Compound: COc1ccc2cc1Oc1ccc(cc1)C[C@H]1c3cc(c(OC)cc3CCN1C)Oc1c(OC)c(OC)c(CN3CCCCC3)c3c1[C@H](C2)N(C)CC3 [BS-TE-355]
anti-Jurkat activity increase over tetrandrine [2]: ~4 fold

IC50 [1]: 0.11 µg/mL (≈ 0.147 µM) | IC90 [1]: 2.43 µg/mL (≈ 3.24 µM) | IC50 [2]: 1.41 µg/mL (≈ 1.88 µM) | IC90 [2]: 5.41 µg/mL (≈ 7.22 µM) | IC50 [3]: 0.79 µg/mL (≈ 1.05 µM) | IC90 [3]: 2.4 µg/mL (≈ 3.2 µM) | IC50 [4]: 1.24 µg/mL (≈ 1.66 µM) | IC90 [4]: 3.2 µg/mL (≈ 4.27 µM) | IC50 [5]: 1.54 µg/mL (≈ 2.06 µM) | IC90 [5]: 2.21 µg/mL (≈ 2.95 µM) | IC50 [6]: 0.63 µg/mL (≈ 0.841 µM) | IC90 [6]: 2.17 µg/mL (≈ 2.9 µM) | IC50 [7]: 0.94 µg/mL (≈ 1.26 µM) | IC90 [7]: 2.59 µg/mL (≈ 3.46 µM) | IC50 (A549 (human lung cancer)): 3.5 µg/mL (≈ 4.67 µM) | IC90 (A549 (human lung cancer)): 10.5 µg/mL (≈ 14 µM) | IC50 [8]: 0.51 µg/mL (≈ 0.681 µM) | IC90 [8]: 0.91 µg/mL (≈ 1.22 µM) | IC50 [9]: 1.63 µg/mL (≈ 2.18 µM) | IC90 [9]: 3 µg/mL (≈ 4.01 µM) | IC50 [10]: 1.55 µg/mL (≈ 2.07 µM) | IC90 [10]: 5 µg/mL (≈ 6.68 µM) | IC50 [11]: 1.11 µg/mL (≈ 1.48 µM) | IC90 [11]: 2.02 µg/mL (≈ 2.7 µM) | IC50 [12]: 1.26 µg/mL (≈ 1.68 µM) | IC90 [12]: 1.88 µg/mL (≈ 2.51 µM) | IC50 [13]: 1.3 µg/mL (≈ 1.74 µM) | IC90 [13]: 1.67 µg/mL (≈ 2.23 µM) | IC50 [14]: 2.19 µg/mL (≈ 2.92 µM) | IC90 [14]: 4 µg/mL (≈ 5.34 µM) | IC50 (PC-3 (prostate cancer)): 3.4 µg/mL (≈ 4.54 µM) | IC90 (PC-3 (prostate cancer)): 5 µg/mL (≈ 6.68 µM) | IC50 (MG63 (osteosarcoma)): 0.49 µg/mL (≈ 0.654 µM) | IC90 (MG63 (osteosarcoma)): 0.62 µg/mL (≈ 0.828 µM) | IC50 [15]: 1.62 µg/mL (≈ 2.16 µM) | IC90 [15]: 4.58 µg/mL (≈ 6.12 µM) | IC50 [16]: 3.37 µg/mL (≈ 4.5 µM) | IC90 [16]: 7.54 µg/mL (≈ 10.1 µM) | IC50 [17]: 1 µg/mL (≈ 1.34 µM) | IC90 [17]: 9.26 µg/mL (≈ 12.4 µM)
Compound: COc1ccc2cc1Oc1ccc(cc1)C[C@H]1c3cc(c(OC)cc3CCN1C)Oc1c(OC)c(OC)c(CN3CCCN(C)CC3)c3c1[C@H](C2)N(C)CC3 [BS-TE-356]

IC50 [1]: 0.08 µg/mL (≈ 0.107 µM) | IC90 [1]: 3.69 µg/mL (≈ 4.95 µM) | IC50 [2]: 0.55 µg/mL (≈ 0.737 µM) | IC90 [2]: 4 µg/mL (≈ 5.36 µM) | IC50 [3]: 0.63 µg/mL (≈ 0.845 µM) | IC90 [3]: 3.15 µg/mL (≈ 4.22 µM) | IC50 [4]: 1.1 µg/mL (≈ 1.47 µM) | IC90 [4]: 3.71 µg/mL (≈ 4.97 µM) | IC50 [5]: 1.45 µg/mL (≈ 1.94 µM) | IC90 [5]: 2.4 µg/mL (≈ 3.22 µM) | IC50 [6]: 0.8 µg/mL (≈ 1.07 µM) | IC90 [6]: 2 µg/mL (≈ 2.68 µM) | IC50 [7]: 2.26 µg/mL (≈ 3.03 µM) | IC90 [7]: 4.12 µg/mL (≈ 5.52 µM) | IC50 (A549 (human lung cancer)): 4 µg/mL (≈ 5.36 µM) | IC90 (A549 (human lung cancer)): 16 µg/mL (≈ 21.5 µM) | IC50 [8]: 0.6 µg/mL (≈ 0.804 µM) | IC90 [8]: 1.67 µg/mL (≈ 2.24 µM) | IC50 [9]: 1.96 µg/mL (≈ 2.63 µM) | IC90 [9]: 4.5 µg/mL (≈ 6.03 µM) | IC50 [10]: 2.12 µg/mL (≈ 2.84 µM) | IC90 [10]: 3.97 µg/mL (≈ 5.32 µM) | IC50 [11]: 0.65 µg/mL (≈ 0.871 µM) | IC90 [11]: 1.99 µg/mL (≈ 2.67 µM) | IC50 [12]: 1.39 µg/mL (≈ 1.86 µM) | IC90 [12]: 7.08 µg/mL (≈ 9.49 µM) | IC50 [13]: 1.35 µg/mL (≈ 1.81 µM) | IC90 [13]: 1.92 µg/mL (≈ 2.57 µM) | IC50 [14]: 4 µg/mL (≈ 5.36 µM) | IC90 [14]: > 16 µg/mL | IC50 (PC-3 (prostate cancer)): 3.7 µg/mL (≈ 4.96 µM) | IC90 (PC-3 (prostate cancer)): 5.9 µg/mL (≈ 7.91 µM) | IC50 (MG63 (osteosarcoma)): 1.5 µg/mL (≈ 2.01 µM) | IC90 (MG63 (osteosarcoma)): 2.8 µg/mL (≈ 3.75 µM) | IC50 [15]: 2.66 µg/mL (≈ 3.57 µM) | IC90 [15]: 9.71 µg/mL (≈ 13 µM) | IC50 [16]: 3.37 µg/mL (≈ 4.52 µM) | IC90 [16]: 7.54 µg/mL (≈ 10.1 µM) | IC50 [17]: 2.69 µg/mL (≈ 3.61 µM) | IC90 [17]: 10.1 µg/mL (≈ 13.5 µM)
Compound: COc1ccc2cc1Oc1ccc(cc1)C[C@H]1c3cc(c(OC)cc3CCN1C)Oc1c(OC)c(OC)c(CNCc3ccc(C)o3)c3c1[C@H](C2)N(C)CC3 [BS-TE-358]
anti-Jurkat activity increase over tetrandrine [2]: ~4 fold
